Columns and labels:
purified human TG2 = target: T1, purified human TG2 (Homo sapiens, UniProt P21980); experiment: Conformational shift assay by native polyacrylamide gel electrophoresis (native-PAGE); type: biochemical; settings: TG2 2.5 uM; 1 mM LDN-27219, 1 mM GTPNa2, or 0.2 mM Z-DON with CaCl2
T1 construct: purchased Zedira (Darmstadt, Germany); host or cells: insect cells
T1 sequence (P21980 1-687): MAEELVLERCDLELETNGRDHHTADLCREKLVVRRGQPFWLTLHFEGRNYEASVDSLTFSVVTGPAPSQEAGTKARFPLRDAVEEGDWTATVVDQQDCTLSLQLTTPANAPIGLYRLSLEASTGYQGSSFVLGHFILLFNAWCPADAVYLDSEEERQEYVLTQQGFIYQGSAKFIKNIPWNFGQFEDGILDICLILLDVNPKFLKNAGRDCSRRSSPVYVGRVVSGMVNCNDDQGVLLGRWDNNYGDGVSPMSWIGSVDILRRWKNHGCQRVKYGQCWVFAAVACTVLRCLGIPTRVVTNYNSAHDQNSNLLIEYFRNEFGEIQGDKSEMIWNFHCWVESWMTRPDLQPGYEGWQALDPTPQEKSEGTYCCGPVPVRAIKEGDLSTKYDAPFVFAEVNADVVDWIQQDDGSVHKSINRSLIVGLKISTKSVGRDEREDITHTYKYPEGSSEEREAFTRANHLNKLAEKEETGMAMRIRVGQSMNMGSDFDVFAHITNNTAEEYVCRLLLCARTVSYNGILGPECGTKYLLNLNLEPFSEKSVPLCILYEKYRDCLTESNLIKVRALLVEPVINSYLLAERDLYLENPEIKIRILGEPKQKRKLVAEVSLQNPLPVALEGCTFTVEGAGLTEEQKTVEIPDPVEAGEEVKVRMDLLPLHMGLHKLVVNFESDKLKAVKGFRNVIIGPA
Method: For the conformational shift assay using native polyacrylamide gel electrophoresis (native-PAGE) purified and functional human TG2 protein produced in insect cells was obtained from Zedira (Darmstadt, Germany).
Native gel electrophoresis experiments were performed using a method similar to those previously described (Pinkas D M, et al., PLoS Biol, 2007, 5(12), 2788-2796.) (Iversen R, et al., Proc Natl. Acad. Sci., 2014, 111(43), 17146-17151). Briefly, TG2 (2.5 uM) was incubated for 30 min at room temperature in preincubation buffer (75 mM imidazole, 0.5 mM EDTA, 5 mM DTT [pH 7.2], 10% DMSO) with or without 1 mM GTPNa2 or 1 mM LDN-27219 before adding Native Sample Buffer for Protein Gels (Bio-Rad) or in preincubation buffer with 0.2 mM Z-DON 30 min prior addition of 5 mM of CaCl2 for 20 min. Native buffer was added (dilution 1:2), and 1.5 ug of protein was loaded onto a 4-20% Criterion™ TGX Stain-Free™ gel (Bio-Rad) using Tris-glycine as the running buffer. For 75 min, 125 V was applied at 4° C. The bands were visualized using stain-free technology by exposing the gels to UV light and capturing the image using a PXi 4 Touch image analysis system (Syngene). Band intensity analysis was carried out using GeneTools 4 software (Syngene).

[1] = system: small mesenteric arteries; experiment: Acetylcholine-induced endothelium-dependent relaxation of phenylephrine pre-contracted small mesenteric arteries, isometric myograph (ex vivo); parameters: species or system Male Wistar rats; settings: 1 hour incubation; Z-DON 4·10^−5, Boc-DON 10^−5, VA-5 10^−5 mol/L; 12-14 weeks old rats
Method: Small mesenteric arteries were mounted in microvascular myographs (Danish Myotechnology, Aarhus, Denmark) using two 40 μm wires and stretched to their optimal diameter for isometric tension recordings, which corresponded to 0.9 times the estimated internal diameter at 100 mmHg of transmural pressure. PSS solution in the myograph bath was heated to 37° C. and continuously bubbled with 5% CO2 in air to maintain pH (7.4). The vessel viability was tested at the beginning of each experiment by measuring the vasoconstrictor responses to a solution with a high K^+ concentration (KPSS), equivalent to PSS except that NaCl was exchanged for KCl on an equimolar basis, giving a final concentration of 123.7 mmol/L K^+ and the presence of endothelium was confirmed by addition of acetylcholine (ACh) (10^−5) after pre-constriction with noradrenaline (5·10^−6 mol/L), arteries with less than 75% of relaxation were discarded.
Mesenteric arteries from rats of different age were incubated with (10^−6 mol/L) LDN-27219 or vehicle for 25 minutes and pre-contracted with phenylephrine (Phe) (10^−5 mol/L). Then cumulative addition of acetylcholine (ACh) caused the relaxation of the mesenteric arteries and the concentration-response curves were constructed.
Rats of 5-7 weeks age, about 12 weeks age, and more than 30 weeks of age were tested respectively. The results of the isometric tension studies are shown in FIGS. 1, A), B) and C) respectively, each representing a different their age group.
(§1) The small mesenteric arteries were prepared in the same way is described in example 1.

Male Wistar rats = experiment: Mean arterial pressure (MAP) in vivo measurement after intrajugular infusion; settings: VA-5 single dose 1 mg/kg, intrajugular infusion during 3 minutes; adult and older rats
Method: For ‘in vivo’ experiments Wistar rats of different age were fasted 8 h before anesthesia with 35 mg/kg of S-ketamine and 50 mg/kg of pentobarbital sodium administered intraperitoneally.
Male Wistar rats with 12-14 and 30-35 weeks of age were anesthetized with s-ketamine (35 mg/kg) and pentobarbital (50 mg/kg) and placed on a heated blanket to maintain body temperature at 37° C. ECG needles were installed for electrocardiographic measurements and a solid state catheter (Millar Inc, Houston, USA) was introduced into the carotid artery to measure MAP. MAP and electrocardiographic data was continuously recorded on a computerized data acquisition system (PowerLab, ADInstruments). Adequate depth of anesthesia was checked periodically by the absence of the toe pinch withdrawal effect and ⅓ of the initial dose of anesthetics was administered intraperitoneally when needed (usually each 1½ h). Changes in MAP and electrocardiographic signal in response to intrajugular infusion during 3 minutes of different doses of LDN-27219 and the corresponding vehicle (PEG-400) were studied.
The Area Under the Curve (AUC) was calculated using Graphpad Prism 5.1 (GraphPad Software, San Diego, Calif., USA) for each response to the change in MAP that was collected during the experiments in example 3. The AUC gives information about the maximal response, and about the duration of the effect.
Rats of different age in these experiments were anesthetized, prepared and catheterized as described in Example 3.

[2] = system: vascular smooth muscle cells (VSMCs) potassium currents; experiment: Whole-cell patch-clamp of K+ outward currents in isolated vascular smooth muscle cells; type: cell-based, rat; settings: LDN-27219 3·10^−5 mol/L 12 min; VA-5 5·10^−5 mol/L one hour incubation
Method: For isolation of VSMCs, rat mesenteric arteries were dissected as previously described, opened longitudinally and stored in ice-cold dissociation solution containing (mmol/L): 119 NaCl, 4.7 KCl, 1.18 KH2PO4, 1.17 MgSO4, 24.9 NaHCO3, 0.027 EDTA, and 11 glucose, pH=7.4. Arteries were then equilibrated during 10 min in a dissociation solution with bovine albumin serum (BSA; 1 mg/mL) at 37° C. and then exposed to the same solution supplemented with papain (0.5 mg/mL; Worthington Biochemical Corp., Lakewood, N.J., USA) and dithiothreitol (DTT; 1 mg/mL) at 37° C. for 8 min. Arteries were then washed in ice-cold dissociation solution and moved to dissociation solution containing BSA (1 mg/mL) and collagenase (0.7 mg/mL type F and 0.4 mg/mL type H; Worthington Biochemical Corp.) at 37° C. for 3 min. […]
Membrane currents were recorded under the whole-cell configuration of the patch-clamp technique using an Axon Multiclamp 700A amplifier (Axon instruments, Molecular Devices, CA, USA). […] Current-voltage relations were determined using 600 ms voltage ramps from −100 to 160 mV and a holding potential (Vh) of −65 mV for SMCs.
Amplitudes of K^+-outward currents were measured in control conditions and 12 min after the addition of LDN-27219 (3·10^−5 mol/L) to the extracellular solution by a perfusion system.

[3] = system: small mesenteric arteries; settings: M. Engholm et al., British J. Pharm. (2016), 173, 839-855; cited from earlier work
[4] = system: small mesenteric arteries; experiment: Direct relaxation of U46619 pre-contracted small mesenteric arteries, concentration-response curves; parameters: species or system Male Wistar rats; settings: U46619 4·10^−7 mol/L; LDN-27219 10^−8-10^−5 mol/L; Z-DON 10^−8-3·10^−4 mol/L; endothelium intact
Method: as §1
The small mesenteric arteries were pre-contracted with the thromboxane analogue, U46619 (4·10^−7 mol/L) and concentration-response curves for TG2 specific inhibitors, LDN-27219 (10^−8-10^−5 mol/L) and Z-DON (10^−8-3·10^−4 mol/L) were constructed. To study the role of the endothelial pathways in LDN-27219 relaxation, concentration-response curves were constructed for it in arteries whose endothelium had been removed mechanically by rubbing the lumen repeatedly with a human scalp hair.

| Molecule | relative abundance of closed / open conformation of TG2 (purified human TG2) | ACh relaxation compared to the vehicle [1] | further results |
| --- | --- | --- | --- |
| Nc1nc2c(ncn2[C@@H]2O[C@H](COP(=O)([O-])OP(=O)([O-])OP(=O)([O-])[O-])[C@@H](O)[C@H]2O)c(=O)[nH]1.[Na+].[Na+].[Na+].[Na+] [GTP, guanosine 5′-triphosphate sodium salt] | completely force TG2 to its closed conformation |  |  |
| C=CC(=O)NCCCC[C@H](NC(=O)OCc1ccccc1)C(=O)N1CCN(C(=O)c2cc3ccc(O)cc3oc2=O)CC1 [VA-5, (S)-Benzyl (6-acrylamido-1-(4-(7-hydroxy-2-oxo-2H-chromene-3-carbonyl)piperazin-1-yl)-1-oxohexan-2-yl)carbamate, reference compound] |  | slight inhibition of ACh relaxation | mean blood pressure (MAP) (Male Wistar rats): did not produce any change in the mean blood pressure; potassium currents compared to control conditions [2]: significantly smaller potassium currents |
| NCCSSCCN [cystamine] |  |  | effects on endothelial pathways [3]: lacked effects on endothelial pathways |
| Boc-DON-Gln-Ile-Val-OMe [reference compound] |  | no significant effect |  |
| Z-DON-Val-Pro-Leu-OMe [reference compound] | force its open conformation | slight inhibition of ACh relaxation | relaxation of U46619 pre-contracted arteries [4]: failed to induce any vasodilation |

Reference: patent US20210308138A1, “TISSUE TRANSGLUTAMINASE MODULATORS FOR MEDICINAL USE” (Aarhus Universitet, priority 2018, published 2021)
